Experiments:
[1] = biological target: Histamine N-methyltransferase (Homo sapiens, UniProt P50135); assay: Inhibition of histamine N-methyltransferase by radiochemical assay
[2] = Inhibition of Haemonchus contortus phosphoethanolamine methyltransferase2 conversion of phosphomonomethylethanolamine to phosphodimethylethanolamine by radiochemical assay in presence of S-adenosylmethionine
[3] = Inhibition of Haemonchus contortus phosphoethanolamine methyltransferase1-mediated conversion of phosphoethanolamine to phosphomonomethylethanolamine by radiochemical assay in presence of S-adenosylmethionine
[4] = biological target: T1, Phosphoethanolamine N-methyltransferase (Plasmodium falciparum, UniProt Q8IDQ9); assay: Inhibition of Plasmodium falciparum phosphoethanolamine methyltransferase using phospethanolamine as substrate by radiochemical assay in presence of S-adenosylmethionine
T1 sequence (Q8IDQ9 whole entry): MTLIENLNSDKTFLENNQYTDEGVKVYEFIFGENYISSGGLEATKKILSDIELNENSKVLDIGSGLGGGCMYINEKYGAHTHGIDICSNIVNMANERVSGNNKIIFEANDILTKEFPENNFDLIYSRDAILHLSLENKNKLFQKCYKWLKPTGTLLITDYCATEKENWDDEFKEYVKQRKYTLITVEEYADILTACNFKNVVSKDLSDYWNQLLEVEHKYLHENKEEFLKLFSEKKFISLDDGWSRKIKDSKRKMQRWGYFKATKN

Sequence of Histamine N-methyltransferase (P50135 whole entry): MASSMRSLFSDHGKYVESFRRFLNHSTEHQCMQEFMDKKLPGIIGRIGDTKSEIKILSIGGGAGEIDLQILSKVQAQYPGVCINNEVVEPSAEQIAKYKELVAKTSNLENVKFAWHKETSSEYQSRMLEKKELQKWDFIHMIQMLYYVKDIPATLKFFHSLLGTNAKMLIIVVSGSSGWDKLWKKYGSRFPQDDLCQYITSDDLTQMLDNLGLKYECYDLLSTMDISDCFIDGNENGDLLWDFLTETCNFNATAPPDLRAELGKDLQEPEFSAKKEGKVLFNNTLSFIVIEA

| Ki [1] [µM] | IC50 [2] [µM] | IC50 [3] [µM] | SMILES | IC50 [4] [µM] |
| --- | --- | --- | --- | --- |
| 0.019 | 3000 | 3000 | CCN(CC)Cc1cc(Nc2ccnc3cc(Cl)ccc23)ccc1O | – |
| – | – | – | CCN(CC)CCCC(C)Nc1ccnc2cc(Cl)ccc12 (stereo not given) [CHLOROQUINE] | 554 |
| – | – | – | COc1cc(NC(C)CCCN)c2ncccc2c1 (stereo not given) [PRIMAQUINE] | 460 |
